Measured values published in publication PMC10222323, “Novel Biotinylated Cu(II)-Phenanthroline Complexes: 2D and 3D Cytotoxic Activity and Mechanistic Insight” (Molecules, 2023).

Assays:
[1] = tested on: HCT-15 (colorectal with low sensitivity for cisplatin) cancer cells; assay: MTT cytotoxicity test, 72 h, HCT-15; format: cell-based, human; conditions: mean ± S.D.
Description: (§1) The in vitro anticancer potential of the newly developed complexes and of the ligands has been tested on six different cancer cell lines including PSN-1 (pancreatic), HCT-15 (colorectal with low sensitivity for cisplatin), 2008 (ovarian), A431 (cervical), MDA-MB-231 (breast), and U1285 (lung) cancer cells. For comparison purposes, cisplatin efficacy was assessed under the same experimental conditions.
(§2) Tested compounds were dissolved in DMSO and added to the cell-growth medium to a final solvent concentration of 0.5%, which is well reported to not have cytotoxic effects on cell viability. Cisplatin (Sigma Chemical Co., St. Louis, MO, USA) was dissolved in a physiologic solution (0.9% sodium chloride).
(§3) Human colon (HCT-15), pancreatic (PSN-1), and breast (MDA-MB-231) carcinoma-cell lines were obtained from the American Type Culture Collection (ATCC, Rockville, MD). Human cervical carcinoma (A431) cells were kindly provided by Prof. F. Zunino (Division of Experimental Oncology B, Istituto Nazionale dei Tumori, Milan). Human ovarian carcinoma (2008) cells and their cisplatin-resistant counterpart (C13*) were kindly provided by Prof. G. Marverti (Dipartimento di Scienze Biomediche, Università di Modena University, Italy). Cell lines were cultured in RPMI-1640 or DMEM medium (Euroclone) added with 10% fetal calf serum (Euroclone, Milan, Italy), antibiotics (50 units per mL penicillin, and 50 μg mL^−1 streptomycin), and 2 mM L-glutamine.
(§4) The growth inhibitory effect toward the tumour cell lines was evaluated by the MTT test as previously described.

[2] = tested on: U1285 (lung) cancer cells; assay: MTT cytotoxicity test, 72 h, U1285; format: cell-based, human; conditions: mean ± S.D., read-out: IC50 U-1285
Description: as §1, §2, §4

[3] = tested on: C13* ovarian cancer cells (cisplatin-resistant); assay: MTT cytotoxicity test, 72 h, cisplatin-resistant C13*; format: cell-based, human; conditions: for R.F. (resistance factor): RF = IC50 resistant (C13*)/IC50 parental cells (2008); for IC50: cisplatin-resistant cells, 72 h, MTT test
Description: Table 2 reported the IC50 values of the complexes against two types of ovarian cancer cells, one sensitive (2008) and one resistant to cisplatin (C13*). […] The resistance factor (R.F., the ratio among IC50 values obtained in resistant C13*cells and those calculated in the sensitive 2008 ones) calculated for all tested complexes resulted to be ≤2 (R.F. for cisplatin 11.1), strongly confirming the ability of the complexes to bypass cisplatin resistance.
as §2, §3, §4

noncancerous CHO cells = assay: Cytotoxicity against noncancerous CHO cells; format: cell-based; conditions: for S.I. (selectivity index): average IC50 toward normal cells divided by the average IC50 for the malignant cells; for IC50: noncancerous cells
Source text: In order to preliminarily assess the possible toxic effect on noncancerous cells, we also evaluated the cytotoxic potential of the newly developed Cu(II) complexes against noncancerous CHO cells (Table 3). For all tested complexes, calculated IC50 values were higher than those obtained (on average) against tumour cells, thus indicating for this class of metal complexes a slightly preferential cytotoxicity against cancer cells, as attested by the calculated selectivity index values (SI = the quotient of the average IC50 toward normal cells divided by the average IC50 for the malignant cells).
as §4

[4] = tested on: human pancreatic PSN-1 cancer-cell spheroids; assay: 3D spheroid cytotoxicity, APH assay, 72 h; format: cell-based; conditions: for IC50: 3D spheroids, 72 h, APH test; for times more effective than cisplatin in 3D spheroids: PSN-1 3D spheroids, relative to cisplatin
Description: The cancer spheroids were treated with tested complexes for 72 h, and the cell viability was estimated by means of a modified acid phosphatase (APH) assay.
Spheroid cultures were performed by seeding 2.5 × 10^3 PSN-1 cancer cells/well in spheroid-suitable tissue culture untreated 96-well plates (Greiner Bio-one, Kremsmünster, Austria) in RPMI-1640 cell culture medium without phenol red (Sigma Chemical Co., St. Louis, MO, USA) containing 10% fetal calf serum and supplemented with 20% methyl cellulose stock solution.
An established APH-modified assay was used to detect the cytotoxicity profile in 3D spheroids, as previously described. IC50 values were calculated using a 4-PL model.

DNA = assay: Ethidium bromide displacement assay; format: binding; conditions: EtBr displacement
Description: A number of research studies were performed on the elucidation of the mechanism of action of copper complexes in the past three decades. Despite several different molecular targets having been proposed for copper(II) complexes, DNA still represents one of the most substantiated when considering diamine ligands. On this basis, we thought it of interest to evaluate the ability of tested complexes to interact with DNA, both at molecular and cellular levels. An ethidium bromide (EB) displacement assay was used to understand if the complexes interact with the DNA at a molecular level. […] These values are very much in line with what was previously seen by us and also very close to the reported literature values of 2.60 × 10^7 M(bp^−1) and 3.04 × 10^7 M(bp^−1) for the bis complexes of [Cu(phen)2]^2+ and [Cu(DPQ)2]^2+ reported by Molphy et al.. […] It is largely possible that the presence of the 1,10-phenanthroline scaffold on compounds 3 and 4 is contributing to the increased displacement of the EtBr (probably by intercalation) and leading to a more noticeable decrease in the fluorescence.
EtBr displacement assays were performed in 10 mM phosphate buffer solution (pH 7.4) as described by Boger et al. The binding values were calculated using the % relative decrease of fluorescence at 50% and the equation below. (1) EEBEtBr/compound50%FI

MDA-MB-231 cells = conditions: 24 h, IC50 concentrations
Description: Transmission electron microscopy (TEM) studies were also performed to assess the eventual modification of cellular/subcellular morphological features induced by the tested complexes. Figure 5 reports the TEM images of the breast carcinoma cells MDA-MB-231 treated for 24 h with IC50 concentrations of cisplatin or compounds 2 and 4.
About 10^6 MDA-MB-231 cells were seeded in 24-well plates and, following overnight incubation, were treated with the tested compounds for 24 h. Then, cells were processed as previously described. Pictures were captured with a Hitachi H-600 electron microscope (Hitachi, Tokyo, Japan) operating at 75 kV. All photos were analyzed by using Corel Draw 11.
Figure 5 TEM analysis of MDA-MB-231 human breast cancer cells: (a,b) control cells; (c–e) cells treated for 24 h with IC50 concentrations of 2; (f–h) cells treated for 24 h with IC50 concentrations of 4.

Question: For `O=C(CCCC[C@@H]1SC[C@@H]2NC(=O)N[C@@H]21)NN=C1C(=O)c2ccc[n+]3c2-c2c1ccc[n+]2[Cu-2]31[n+]2cccc3ccc4ccc[n+]1c4c32.O=[N+]([O-])[O-].O=[N+]([O-])[O-]` [Complex 4, [Cu(phen)(phendione-biotin)](NO3)2], which IC50 [1] is on record?
Answer: Its IC50 is 0.4 ± 0.02 µM.

Question: What about the IC50 [2] of the same compound?
Answer: The IC50 was 2 ± 0.6 µM.

Question: What about the “R.F. (resistance factor)” value [3] of the same compound?
Answer: Its value is 1.9.

Question: What about the IC50 [3] of the same compound?
Answer: Its IC50 is 1.1 ± 0.3 µM.

Question: What about the “S.I. (selectivity index)” value (noncancerous CHO cells) of the same compound?
Answer: The value was 2.3.

Question: And the IC50 (noncancerous CHO cells)?
Answer: The IC50 was 1.8 ± 0.7 µM.

Question: What about the IC50 [4] of the same compound?
Answer: Its IC50 is 6.9 ± 1.3 µM.

Question: What about the “times more effective than cisplatin in 3D spheroids” value [4] of the same compound?
Answer: The value was “eight”.

Question: And the “fluorescence quenching (in words)” value (DNA)?
Answer: Its value is “highest quenching values”.

Question: And the relative fluorescence decrease (DNA)?
Answer: Its relative fluorescence decrease is “greater than 50%”.

Question: And the binding constant (DNA; 10 mM phosphate buffer pH 7.4, from 50% fluorescence decrease)?
Answer: Its binding constant is 1.28 × 10^7 M(bp^−1).

Question: And the “cell morphology by TEM” value (MDA-MB-231 cells)?
Answer: The value was “substantial enhancement of the mitochondrial dimensions (swelling) and a partial disruption of the cristae structures”.

Question: With `O=C(CCCC[C@@H]1SC[C@@H]2NC(=O)N[C@@H]21)NN=C1C(=O)c2ccc[n+]3c2-c2c1ccc[n+]2[Cu-2]3([Cl])[Cl]` [Complex 2, [Cu(phendione-biotin)Cl2]] as the compound, how does the IC50 [1] read?
Answer: Its IC50 is 0.4 ± 0.1 µM.

Question: And the IC50 [2]?
Answer: The IC50 was 3.8 ± 0.5 µM.

Question: What about the “R.F. (resistance factor)” value [3] of the same compound?
Answer: The value was 1.0.

Question: And the IC50 [3]?
Answer: The IC50 was 1.1 ± 0.4 µM.

Question: What about the “S.I. (selectivity index)” value (noncancerous CHO cells) of the same compound?
Answer: The value was 3.7.

Question: And the IC50 (noncancerous CHO cells)?
Answer: The IC50 was 5.2 ± 0.3 µM.

Question: What about the IC50 [4] of the same compound?
Answer: The IC50 was 1.3 ± 0.5 µM.

Question: And the “times more effective than cisplatin in 3D spheroids” value [4]?
Answer: Its value is “about forty”.

Question: What about the “fluorescence quenching (in words)” value (DNA) of the same compound?
Answer: Its value is “very small quenching”.

Question: And the “cell morphology by TEM” value (MDA-MB-231 cells)?
Answer: Its value is “substantial enhancement of the mitochondrial dimensions (swelling) and a partial disruption of the cristae structures”.
